Data reported in patent publication US9586994B2, “CD44V6-derived peptides for treating breast cancer” (KARLSRUHER INSTITUT FÜR TECHNOLOGIE, priority 2012, dated 2017).

Columns and labels:
[1] = target: T1, CD44v6 (Homo sapiens, UniProt P16070); experiment: Peptide blocking of EGF/TGFα-induced Erk phosphorylation in MCF7 cells (Western blot); format: cell-based; settings: peptide 100 ng/ml; for EGF-induced activation of the ErbB receptors (Erk phosphorylation): MCF7, serum-starved, EGF 20 ng/ml
T1 construct: endogenous in cells; host or cells: MCF7; MCF10A
Protocol: 3×10^5 were seeded per well of a 6-well plate and serum-starved for 24 hours. Afterwards the medium inside of each well was reduced to 1 ml and the respective peptide (v6 (both peptides of SEQ ID No.: 2 and 6 were tested), or ctrl peptide) was added at a concentration of 100 ng/ml. The cells then were incubated together with the peptide at 37° C. for 5 mins. Ligand concentration for all peptide blocking experiments was 20 ng/ml.
To assay protein expression via Western blot cells were washed 1× with PBS and afterwards lysed in 2×Laemmli sample buffer (160 mM Tris-HCl pH 6.8, 4% SDS, 16% glycerol, 0.1M DTT, 0.01% bromphenol blue). The sample was sheared through a 26 gauge needle. In succession the lysates were boiled for 5 mins at 99° C. in order to denature the proteins in the sample and then spun down at 10 000 rmp for 1 min Eventually the samples were loaded onto an SDS-PAGE gel.
To test whether CD44v6 acts as a co-receptor in MCF7 or MCF10A cells, a peptide blocking experiment using peptides of SEQ ID NO: 6 was conducted. The cells were serum-starved for 24 h and then pre-incubated with a v6 peptide or an unspecific control peptide. Then, the cells were induced with EGF or HGF as a control. As a read-out for ErbB-activation, the phosphorylation of the Erk-kinase was used.

[2] = tested on: L3.6pl cells; experiment: Human VEGF in cell culture supernatant of L3.6pl cells (Quantikine immunoassay); format: cell-based; settings: peptide 200 ng/ml in the culture medium, 5 days
Protocol: Determination of human HGF and VEGF levels in cell culture medium of L3.6pl cells were performed using the Quantikine Human HGF Immunoassay and Quantikine Human VEGF Immunoassay from Roche (Mannheim, GER) and R&D Systems (Wiesbaden, Germany) For this purpose 3×10^6 cells were cultured for 5 days in a 15 cm plate in the presence of the respective peptides as indicated. The supernatant by centrifugation (20 ml) was centrifuged (1200 rpm) and the assay was performed according to manufacturer's instructions.

[3] = tested on: CD44v6; experiment: HGF-induced activation of Met and ERK in L3.6pl cells (Western blot); format: cell-based, human; settings: peptide before induction with 10 ng/ml HGF
Outline: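 L3.6pl human pancreatic carcinoma cells serum-starved 24 h, pretreated 10 min at 37° C with CD44v6 or control peptide (100 ng/mL), then stimulated with HGF (10 ng/mL) 5 min. Phospho-Met and phospho-ERK detected by western blot with total Met/ERK reprobe; bands quantified densitometrically.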

T1 sequence (P16070 21-742): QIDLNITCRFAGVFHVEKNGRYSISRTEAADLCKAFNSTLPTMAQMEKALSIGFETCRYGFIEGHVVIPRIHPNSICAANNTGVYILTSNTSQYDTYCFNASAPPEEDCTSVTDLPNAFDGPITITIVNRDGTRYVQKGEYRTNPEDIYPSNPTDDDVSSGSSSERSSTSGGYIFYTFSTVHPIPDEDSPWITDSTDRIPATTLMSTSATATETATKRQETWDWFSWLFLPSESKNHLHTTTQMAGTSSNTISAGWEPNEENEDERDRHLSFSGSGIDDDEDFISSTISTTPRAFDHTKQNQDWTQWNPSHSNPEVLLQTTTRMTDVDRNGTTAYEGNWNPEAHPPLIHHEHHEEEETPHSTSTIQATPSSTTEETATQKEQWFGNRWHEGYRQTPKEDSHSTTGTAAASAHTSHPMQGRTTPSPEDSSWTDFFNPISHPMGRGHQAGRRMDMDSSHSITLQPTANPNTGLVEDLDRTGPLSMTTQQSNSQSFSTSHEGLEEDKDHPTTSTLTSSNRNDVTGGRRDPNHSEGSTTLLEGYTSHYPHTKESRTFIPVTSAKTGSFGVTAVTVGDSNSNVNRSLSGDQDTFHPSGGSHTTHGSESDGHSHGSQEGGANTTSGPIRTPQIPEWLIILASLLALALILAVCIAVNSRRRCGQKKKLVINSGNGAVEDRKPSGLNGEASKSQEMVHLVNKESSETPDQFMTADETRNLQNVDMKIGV

EGF-induced activation of the ErbB receptors (Erk phosphorylation) [1]: blocking of Erk phosphorylation | EGF-induced activation of the ErbB receptors (Erk phosphorylation) ([1]; listed as CD44v6-specific peptide): could be blocked | Erk phosphorylation upon TGFα induction ([1]; MCF7, TGFα 20 ng/ml): not upon TGFα induction
Sequence: KEQWFGNRWHEGYR [SEQ ID NO: 6, human CD44v6 14mer peptide]
hVEGF secretion by L3.6pl cells [2]: can be blocked | HGF-induced phosphorylation/activation of ERK [3]: inhibited | HGF-induced phosphorylation/activation of Met [3]: inhibited | HGF-induced phosphorylation/activation of ERK ([3]; listed as CD44v6 peptide): able to prevent activation | HGF-induced phosphorylation/activation of Met ([3]; listed as CD44v6 peptide): able to prevent activation
